The values below come from patent US20060035873A1, “Methods for inducing apolipoprotein e secretion” (priority 2000, published 2006).

Read-outs that look alike come from different tables or passages of the source.

The test system of experiment [1] is ApoE secretion by THP-1 cells. The experiment in a line: Secretion of ApoE by THP-1 cells, ApoE determined by ELISA. To be noted: for Change in Apo E production: 72 hours incubation. The experiment is classed as cell-based, human. As for the experimental part: The activities of the compounds can be determined an in vitro assay which comprises testing the effects of FXR and LXRα activators on the secretion of ApoE in the THP-1 cell line.
The THP1 cell line was derived from the peripheral blood of a child with acute monocytic leukemia. […] Fresh medium was added to maintain cell density between 2 and 9×10^5 cells/ml. Once a week, new cultures were initiated by inoculating 10 ml of medium with 2×10^6 cells in a 75 cm^2 plate. The plates were kept at 37° C. in a 5% CO2 atmosphere. For screening, cells were seeded in 24-well plates at the density of 2×10^5 cells per well. Phorbol-12-myristat-13-acetate (PMA) was added at 0 and 2.5 nM to initiate THP1 differentiation into adherent macrophage-like cells. Vehicles, reference compounds and test compounds were added simultaneously at concentrations varying from 1 to 50 μM and incubated for 72 hours. The culture medium was then recovered, centrifuged at 300 g for 5 min to remove any unattached cell and stored at −20° C. before analysis.
96 well-microtiter plates were coated by incubating with a 5% gelatine solution from porcine skin, in 50 mM carbonate-bicarbonate buffer, pH9.6 at the concentration of 200 μl/well, for 2 hours at 37° C. The coating solution was carefully removed and the test compound was added (100 μl/well) at the appropriate dilution. Dilutions of a human ApoE standard (ICN BiomedicalsInc, USA) were simultaneously assayed. Test compounds and antibodies were diluted in the following buffer solution: PBS, 1% BSA, 0.1% Tween 20, pH 7.4. Test compounds were incubated for 1 hour at 37° C., and the wells were washed 3 times with 200 μl of buffer solution. One hundred microliters per well of the primary antibody (goat anti-human ApoE IgG) diluted 10000 fold was incubated for 1 hour at 37° C. under continuous shaking. After the third wash, 100 μl/well of the secondary antibody (anti-goat-IgG peroxidase conjugate) diluted 5000 fold was incubated for 1 hour at 37° C. with continuous shaking. Wells were washed 5 times and 100 μl/well of substrate (ortho-phenylenediamine dihydrochloride) was incubated for the appropriate time at room temperature in the dark with continuous shaking. The reaction was stopped by adding 50 μl/well of 3M sulfuric acid and incubating for 1 min at room temperature.
Background: An ELISA detects its analyte on a solid surface through an enzyme-linked reagent.

The next experiment addresses T1, LXRα (Homo sapiens, UniProt Q13133).
T1 sequence (Q13133 1-447): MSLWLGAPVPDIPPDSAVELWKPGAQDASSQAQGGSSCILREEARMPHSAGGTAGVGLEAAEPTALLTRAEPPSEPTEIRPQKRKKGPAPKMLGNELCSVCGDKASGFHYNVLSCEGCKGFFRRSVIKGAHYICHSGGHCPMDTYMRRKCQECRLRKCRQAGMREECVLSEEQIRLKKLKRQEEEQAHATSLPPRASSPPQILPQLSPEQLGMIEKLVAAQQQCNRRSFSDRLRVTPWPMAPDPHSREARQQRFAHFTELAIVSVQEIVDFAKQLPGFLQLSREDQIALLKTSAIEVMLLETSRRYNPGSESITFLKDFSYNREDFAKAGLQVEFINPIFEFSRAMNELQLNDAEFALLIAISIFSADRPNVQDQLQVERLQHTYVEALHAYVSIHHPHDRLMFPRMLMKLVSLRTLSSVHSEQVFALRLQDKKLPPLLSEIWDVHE
To be noted: see Janowsky et al. PNAS 1999; cited from earlier work.

The next experiment has as its system FXR. The conditions noted are these: cited from earlier work.

As for `CC(C)CC[C@@H](O)[C@@H](C)[C@H]1CC[C@H]2[C@@H]3CC=C4C[C@@H](O)CC[C@]4(C)[C@H]3CC[C@]12C` [22(R)-hydroxycholesterol, 5-cholestene-3β,22[R]-diol], the “ApoE secretion at submicromolar concentrations” value in experiment [1] (submicromolar concentrations) is recorded as “significant increases in ApoE secretion”. Also, the “Interaction with Nuclear receptor” value at LXRα is reported as “LXRα activator ^3)”.

Consider `CC(C)CC[C@H](O)[C@@H](C)[C@H]1CC[C@H]2[C@@H]3CC=C4C[C@@H](O)CC[C@]4(C)[C@H]3CC[C@]12C` [22(S)-hydroxycholesterol, 5-cholestene-3β,22[S]-diol], for which the “Interaction with Nuclear receptor” value on LXRα is listed as “Less potent activator”.

Turning to `C[C@H](CCC(=O)O)[C@H]1CC[C@H]2[C@@H]3[C@H](O)C[C@@H]4C[C@H](O)CC[C@]4(C)[C@H]3CC[C@]12C` [Chenodeoxycholic acid, 3α,7α-dihydroxy-5β-cholanic acid], the “Change in Apo E production” value in experiment [1] (compound 50 μM) is recorded as “+138%”; in experiment [1] (compound 50 μM, listed as chenodeoxycholic acid) it was 138%.

Take `C[C@H](CCC(=O)O)[C@H]1CC[C@H]2[C@@H]3[C@H](O)C[C@@H]4C[C@H](O)CC[C@]4(C)[C@H]3C[C@H](O)[C@]12C` [Cholic acid, 3α,7α,12α-trihydroxy-5β-cholan-24-oic acid]: the “Change in Apo E production” value in experiment [1] (compound 50 μM) was “+6%”; in experiment [1] (compound 50 μM, listed as cholic acid), “did not change ApoE secretion”. In the experiment with FXR (see Makishima et al., Parks et al., Wang et al. 1999), the “Interaction with Nuclear receptor” value is reported as “Does not activate”.

Take `CC(C)=CCC/C(C)=C/CC/C(C)=C/CC/C(C)=C/CO` [Geranylgeraniol, All trans-3,7,11,15-tetramethyl-2,6,10,14-hexadecatetraen-1-ol]: the “Change in Apo E production” value in experiment [1] (compound 20 μM) is “+36%”; in experiment [1] (compound 20 μM, listed as geranylgeraniol), 36%. In the experiment with FXR (see Forman et al. Cell 1995), the “Interaction with Nuclear receptor” value is reported as “Does not activate”.
